Measurements taken from US9145411B2, “Substituted amino-pyrimidine derivatives” (Asana Biosciences, LLC, priority 2012, dated 2015).

Experiments:
pAkt(T308) = test: In-cell Western assay, pAkt(T308), U87MG cells; type: cell-based; settings: Homo sapiens, U-87 MG, read-out: inhibition of pAkt(T308), IC50
Method: (§1) Cells from human prostate cancer cell line PC3 (American Type Culture Collection (ATCC), Manassas, Va. 20108 USA) were seeded at an optimal density of 22,000 cell/well in 96-well plates containing Ham's F12K medium (90 μL) and incubated overnight. The compound dilutions were carried out in 100% DMSO followed by a dilution in the medium. Test compounds were added in serial dilutions to the wells and incubated for 2 hours. The cells were washed and fixed with 4% paraformaldehyde. After incubation at room temperature for 1 hour in the dark, blocking was done for 2 hours at room temperature. […] IC50 values were calculated using a sigmoidal dose-response curve fit in GraphPad Prism® v5 software.
(§2) In-cell Western assays for pAkt(T308) and pS6RP were also carried out in a glioma cancer cell line with a PTEN null mutation (U87MG cells), in a similar manner to the protocol described above for PC3 cells, in order to assess the ability of the compounds to inhibit the Akt-pathway in a glioma cancer cell line. […] Compounds of the invention cause inhibition of pAkt(T308), pAkt(S473) and pS6RP in U87MG, BT474 and T47D cell lines as determined by these assays.

pS6RP = test: In-cell Western assay, pS6RP, U87MG cells; type: cell-based; settings: Homo sapiens, U-87 MG, read-out: inhibition of pS6RP, IC50
Method: as §1, §2

Molecule CC(=O)Nc1cccc(-c2cnc3c(N4CCOCC4)nc(-c4cnc(N)nc4)nc3c2)c1 [Example 3, N-(3-(2-(2-Aminopyrimidin-5-yl)-4-morpholinopyrido[3,2-d]pyrimidin-7-yl)-phenyl)acetamide] has an IC50 (pAkt(T308)) of under 500 nM and an IC50 (pS6RP) of under 500 nM.
